According to PubChem BioAssay (NCI):
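Results reflect a 48-hour exposure of cells in 96-well plates to compound at five concentrations. GI50: concentration for 50% inhibition of growth. TGI marks complete inhibition of growth.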

How the values were obtained:
Test in all cases: growth of human tumour cells (NCI), 48 h
[1] = test system: 786-0 renal
[2] = test system: A498 renal
[3] = test system: A549 NSCLC
[4] = test system: ACHN renal
[5] = test system: BT-549 breast
[6] = test system: CAKI-1 renal
[7] = test system: CCRF-CEM leukemia
[8] = test system: COLO 205 colon
[9] = test system: DU-145 prostate
[10] = test system: EKVX NSCLC
[11] = test system: HCC-2998 colon
[12] = test system: HCT-116 colon
[13] = test system: HCT-15 colon
[14] = test system: HL-60(TB) leukemia
[15] = test system: HOP-62 NSCLC
[16] = test system: HOP-92 NSCLC
[17] = test system: HS 578T breast
[18] = test system: HT29 colon
[19] = test system: IGROV1 ovarian
[20] = test system: K-562 leukemia
[21] = test system: KM12 colon
[22] = test system: LOX IMVI melanoma
[23] = test system: M14 melanoma
[24] = test system: MALME-3M melanoma
[25] = test system: MCF7 breast
[26] = test system: MDA-MB-231 breast
[27] = test system: MOLT-4 leukemia
[28] = test system: NCI-H226 lung
[29] = test system: NCI-H23 lung
[30] = test system: NCI-H460 lung
[31] = test system: NCI-H522 lung
[32] = test system: NCI/ADR-RES ovarian
[33] = test system: OVCAR-4 ovarian
[34] = test system: OVCAR-5 ovarian
[35] = test system: OVCAR-8 ovarian
[36] = test system: PC-3 prostate
[37] = test system: RPMI-8226 leukemia
[38] = test system: RXF 393 renal
[39] = test system: SF-268 CNS
[40] = test system: SF-295 CNS
[41] = test system: SF-539 CNS
[42] = test system: SK-MEL-2 melanoma
[43] = test system: SK-MEL-28 melanoma
[44] = test system: SK-MEL-5 melanoma
[45] = test system: SK-OV-3 ovarian
[46] = test system: SN12C renal
[47] = test system: SNB-19 CNS
[48] = test system: SNB-75 CNS
[49] = test system: SR leukemia
[50] = test system: SW-620 colon
[51] = test system: T-47D breast
[52] = test system: TK-10 renal
[53] = test system: U251 CNS
[54] = test system: UACC-257 melanoma
[55] = test system: UACC-62 melanoma
[56] = test system: UO-31 renal

Question: For `COc1ccc(Cn2cc3c(c2-c2cc(OC)c(OC)c(OC)c2)CCc2c(CN4CCOCC4)noc2-3)cc1`, which GI50 [1] is on record?
Answer: 668 nM

Question: What about the TGI [1] of the same molecule?
Answer: > 100000 nM

Question: What about the GI50 [2] of the same molecule?
Answer: 305 nM

Question: And the TGI [2]?
Answer: 1030 nM

Question: And the GI50 [3]?
Answer: 1130 nM

Question: And the TGI [3]?
Answer: > 100000 nM

Question: And the GI50 [4]?
Answer: 718 nM

Question: And the TGI [4]?
Answer: > 100000 nM

Question: And the GI50 [5]?
Answer: 1140 nM

Question: What about the TGI [5] of the same molecule?
Answer: 4970 nM

Question: And the GI50 [6]?
Answer: 565 nM

Question: And the TGI [6]?
Answer: > 100000 nM

Question: And the GI50 [7]?
Answer: 1070 nM

Question: What about the TGI [7] of the same molecule?
Answer: > 100000 nM

Question: And the GI50 [8]?
Answer: 1230 nM

Question: What about the TGI [8] of the same molecule?
Answer: 6080 nM

Question: And the GI50 [9]?
Answer: 2190 nM

Question: And the TGI [9]?
Answer: > 100000 nM

Question: What about the GI50 [10] of the same molecule?
Answer: 1350 nM

Question: And the TGI [10]?
Answer: > 100000 nM

Question: And the GI50 [11]?
Answer: 1740 nM

Question: And the TGI [11]?
Answer: > 100000 nM

Question: And the GI50 [12]?
Answer: 443 nM

Question: And the TGI [12]?
Answer: > 100000 nM

Question: And the GI50 [13]?
Answer: 457 nM

Question: And the TGI [13]?
Answer: > 100000 nM

Question: And the GI50 [14]?
Answer: 387 nM

Question: What about the TGI [14] of the same molecule?
Answer: 13100 nM

Question: What about the GI50 [15] of the same molecule?
Answer: 1030 nM

Question: What about the TGI [15] of the same molecule?
Answer: > 100000 nM

Question: What about the GI50 [16] of the same molecule?
Answer: 667 nM

Question: And the TGI [16]?
Answer: > 100000 nM

Question: And the GI50 [17]?
Answer: 432 nM

Question: And the TGI [17]?
Answer: > 100000 nM

Question: And the GI50 [18]?
Answer: 637 nM

Question: And the TGI [18]?
Answer: > 100000 nM

Question: And the GI50 [19]?
Answer: 871 nM

Question: And the TGI [19]?
Answer: > 100000 nM

Question: What about the GI50 [20] of the same molecule?
Answer: 399 nM

Question: And the TGI [20]?
Answer: > 100000 nM

Question: And the GI50 [21]?
Answer: 435 nM

Question: And the TGI [21]?
Answer: > 100000 nM

Question: And the GI50 [22]?
Answer: 446 nM

Question: What about the TGI [22] of the same molecule?
Answer: > 100000 nM

Question: What about the GI50 [23] of the same molecule?
Answer: 555 nM

Question: And the TGI [23]?
Answer: > 100000 nM

Question: What about the GI50 [24] of the same molecule?
Answer: 495 nM

Question: What about the TGI [24] of the same molecule?
Answer: > 100000 nM

Question: What about the GI50 [25] of the same molecule?
Answer: 362 nM

Question: What about the TGI [25] of the same molecule?
Answer: > 100000 nM

Question: What about the GI50 [26] of the same molecule?
Answer: 2810 nM

Question: What about the TGI [26] of the same molecule?
Answer: > 100000 nM

Question: And the GI50 [27]?
Answer: 2590 nM

Question: And the TGI [27]?
Answer: > 100000 nM

Question: What about the GI50 [28] of the same molecule?
Answer: 821 nM

Question: What about the TGI [28] of the same molecule?
Answer: > 100000 nM

Question: And the GI50 [29]?
Answer: 1850 nM

Question: What about the TGI [29] of the same molecule?
Answer: > 100000 nM

Question: And the GI50 [30]?
Answer: 506 nM

Question: What about the TGI [30] of the same molecule?
Answer: > 100000 nM

Question: And the GI50 [31]?
Answer: 269 nM

Question: And the TGI [31]?
Answer: 816 nM

Question: And the GI50 [32]?
Answer: 450 nM

Question: And the TGI [32]?
Answer: > 100000 nM

Question: What about the GI50 [33] of the same molecule?
Answer: 18600 nM

Question: And the TGI [33]?
Answer: > 100000 nM

Question: And the GI50 [34]?
Answer: 3220 nM

Question: And the TGI [34]?
Answer: > 100000 nM

Question: What about the GI50 [35] of the same molecule?
Answer: 1800 nM

Question: And the TGI [35]?
Answer: > 100000 nM

Question: And the GI50 [36]?
Answer: 550 nM

Question: And the TGI [36]?
Answer: > 100000 nM

Question: What about the GI50 [37] of the same molecule?
Answer: 1160 nM

Question: What about the TGI [37] of the same molecule?
Answer: > 100000 nM

Question: And the GI50 [38]?
Answer: 382 nM

Question: And the TGI [38]?
Answer: > 100000 nM

Question: What about the GI50 [39] of the same molecule?
Answer: 870 nM

Question: And the TGI [39]?
Answer: > 100000 nM

Question: What about the GI50 [40] of the same molecule?
Answer: 426 nM

Question: What about the TGI [40] of the same molecule?
Answer: > 100000 nM

Question: What about the GI50 [41] of the same molecule?
Answer: 448 nM

Question: What about the TGI [41] of the same molecule?
Answer: > 100000 nM

Question: What about the GI50 [42] of the same molecule?
Answer: 549 nM

Question: What about the TGI [42] of the same molecule?
Answer: > 100000 nM

Question: What about the GI50 [43] of the same molecule?
Answer: > 47700 nM

Question: What about the TGI [43] of the same molecule?
Answer: > 100000 nM

Question: What about the GI50 [44] of the same molecule?
Answer: 1150 nM

Question: And the TGI [44]?
Answer: 14300 nM

Question: What about the GI50 [45] of the same molecule?
Answer: 1470 nM

Question: And the TGI [45]?
Answer: > 100000 nM

Question: And the GI50 [46]?
Answer: 3670 nM

Question: And the TGI [46]?
Answer: > 100000 nM

Question: And the GI50 [47]?
Answer: 1150 nM

Question: What about the TGI [47] of the same molecule?
Answer: > 100000 nM

Question: And the GI50 [48]?
Answer: 308 nM

Question: What about the TGI [48] of the same molecule?
Answer: > 100000 nM

Question: And the GI50 [49]?
Answer: 350 nM

Question: What about the TGI [49] of the same molecule?
Answer: > 100000 nM

Question: And the GI50 [50]?
Answer: 458 nM

Question: And the TGI [50]?
Answer: > 100000 nM

Question: What about the TGI [51] of the same molecule?
Answer: > 100000 nM

Question: And the GI50 [52]?
Answer: > 100000 nM

Question: And the TGI [52]?
Answer: > 100000 nM

Question: And the GI50 [53]?
Answer: 779 nM

Question: And the TGI [53]?
Answer: > 100000 nM

Question: And the GI50 [54]?
Answer: 963 nM

Question: And the TGI [54]?
Answer: > 100000 nM

Question: What about the GI50 [55] of the same molecule?
Answer: 488 nM

Question: What about the TGI [55] of the same molecule?
Answer: > 100000 nM

Question: And the GI50 [56]?
Answer: 674 nM

Question: And the TGI [56]?
Answer: > 100000 nM
